Experimental data: US5798372A, “Method for preventing onset of restenosis after angioplasty employing a retinoid” (Allergan, priority 1997, dated 1998)

Tests used:
[1] = test system: smooth muscle cells (canine aorta); assay: Serum (1%)-induced smooth muscle cell proliferation, 3H-thymidine incorporation; type: cell-based; conditions: Canis lupus familiaris; serum induced; Table 3; read-out: ED50 FOR SMOOTH MUSCLE CELLS, Serum
Experimental: (§1) The effect of 1% serum on DNA synthesis by endothelial or smooth muscle cells using ^3 H-thymidine incorporation was measured. For measuring the effectiveness of retinoids in inhibiting endothelial or smooth muscle cell proliferation induced by certain mitogens, i.e., serotonin or β-FGF the indicated concentrations were added to the media instead of 1% serum. Primary cells isolated from canine aorta were used for these studies. Unlike the typical cell lines (e.g. NIH 3T3 cells, etc.) 6-7 weeks are required to isolate and grow these primary cells in sufficient number to perform a single experiment. For the following studies, the primary cells (passages 2-4) were plated on 35×10 mm tissue culture dishes in 10% fetal bovine serum (FBS) and incubated. After 72 hours of growth the medias was replaced with 0.1% FBS for synchronization and incubated for additional 72 hours. Then 1% serum was added and incubated for 20 hours followed by the addition of 1μCi of ^3 H-thymidine. Four hours after the addition of 3H-thymidine the DNA was precipitated and the amount of ^3 H-thymidine incorporated was measured. This value is reported as the serum or serotonin or β-FGF stimulated value for cellular proliferation and is expressed as a percentage of baseline ^3 H-thymidine incorporation.
(§2) To examine the antiproliferative effect of retinoids, they were dissolved in 100% ethanol and then added at the indicated final concentrations. The compounds were added at the time of adding 1% serum or serotonin or β-FGF to stimulate the cells. (The maximal final concentration of ethanol in culture media was 1% which is non-cytotoxic to endothelial or smooth muscle cells). After 20 hours of incubation with retinoids and 1% serum or serotonin or β-FGF, the ^3 H-thymidine incorporation was measured.
(§3) In this experimental dosages ranging between 0.01 and 100 μM were evaluated for the effect of AGN 191183 on cell growth.
(§4) The other retinoids, disclosed above, were also tested for their effect on smooth muscle and endothelial cell growth at the same dosages as for AGN 191183. Table 2 reports the ED50 for each of these retinoids.

[2] = test system: endothelial cells (canine aorta); assay: Serum (1%)-induced endothelial cell proliferation, 3H-thymidine incorporation; type: cell-based; conditions: Canis lupus familiaris, Endothelial cell; serum induced; Table 3; read-out: ED50 FOR ENDOTHELIAL Cells, Serum
Experimental: as §1, §2, §3, §4

[3] = test system: smooth muscle cells (canine aorta); assay: Serotonin-induced smooth muscle cell proliferation, 3H-thymidine incorporation; type: cell-based; conditions: Canis lupus familiaris, Table 3, read-out: ED50 FOR SMOOTH MUSCLE CELLS, Serotonin
Experimental: as §1
as §2, with “(The maximal final concentration of ethanol in culture media was 1% which is non-cytotoxic to endothelial or smooth muscle cells).” left out
(§5) Certain of the retinoids were then tested for mitogen-induced cellular proliferation, utilizing serotonin (5HT) and β-FGF as such mitogens. In this testing, as reported in Table 3, below, the same dosages were evaluated for their effect on mitogen-induced cellular proliferation (The results are reported as ED50 and compared to the ED50 for serum-induced smooth muscle and endothelial cell growth).

[4] = test system: endothelial cells (canine aorta); assay: Serotonin-induced endothelial cell proliferation, 3H-thymidine incorporation; type: cell-based; conditions: Canis lupus familiaris, Table 3, read-out: ED50 FOR ENDOTHELIAL Cells, Serotonin
Experimental: as §1
as §2, with “(The maximal final concentration of ethanol in culture media was 1% which is non-cytotoxic to endothelial or smooth muscle cells).” left out
as §5

[5] = test system: smooth muscle cells (canine aorta); assay: β-FGF-induced smooth muscle cell proliferation, 3H-thymidine incorporation; type: cell-based; conditions: Canis lupus familiaris, Table 3, read-out: ED50 FOR SMOOTH MUSCLE CELLS, β-FGF
Experimental: as §1
as §2, with “(The maximal final concentration of ethanol in culture media was 1% which is non-cytotoxic to endothelial or smooth muscle cells).” left out
as §5

[6] = test system: endothelial cells (canine aorta); assay: β-FGF-induced endothelial cell proliferation, 3H-thymidine incorporation; type: cell-based; conditions: Canis lupus familiaris, Table 3, read-out: ED50 FOR ENDOTHELIAL Cells, β-FGF
Experimental: as §1
as §2, with “(The maximal final concentration of ethanol in culture media was 1% which is non-cytotoxic to endothelial or smooth muscle cells).” left out
as §5

[7] = test system: cellular proliferation at the site of vascular injury (balloon angioplasty); assay: Rabbit model of angioplasty-induced arterial injury, in vivo 3H-thymidine incorporation; design: species or system New Zealand white rabbits; conditions: 10 mg/kg IP daily
Text: There has been interest in attempting to reduce the incidence of restenosis by minimizing the trauma of angioplasty. […] However, a similar relationship between the degree of injury and restenosis has not been documented with conventional balloon angioplasty. In order to better characterize the time course and degree of cellular proliferation resulting from vascular injury, the effect of retinoids on the in vivo incorporation of 3H-thymidine in a rabbit model of arterial injury was studied. Varying degrees of injury were produced including both simple de-endothelialization of the intima as well as stretch injury of the vessel by conventional angioplasty.
3.0-3.5 kg male, New Zealand white rabbits underwent standardized femoral artery injury. Arterial access was obtained through the right carotid artery which was ligated after the procedure. Heparin (100 U/kg IV) was given once arterial access was obtained. Injury was accomplished by the following method:
1. […]
Arterial specimens were then thawed and stripped of all adventitia. […] The samples were neutralized with 0.5N HCl and counted using multisol scintillation fluid.
Using the above described model of angioplasty induced restenosis it was determined whether chronic treatment with all trans retinoic acid can attenuate the cellular proliferation of the site of vascular injury. […]

CC1=C(/C=C/C(C)=C/C=C/C(C)=C/C(=O)O)C(C)(C)CCC1 [AGN 100335, (E)-3,7-dimethyl-9-(2,6,6-trimethyl-1-cyclohexen-1-yl)-2,4,6,8-nonatetraenoic acid]
IC50 [1]: 35800 nM
IC50 [2]: 28000 nM
IC50 [3]: 47 nM
IC50 [4]: 25 nM
IC50 [5]: > 100000 nM
IC50 [6]: 9 nM
animals receiving retinoic acid that died before the study was completed [7]: 2 out of 4
inhibition of cellular proliferation following angioplasty ([7]; 6 days pretreatment and days 7-9, very small number of animals): appeared to inhibit the development of cellular proliferation following angioplasty
